Source: paper PMC7822874, “Chemoprotective antimalarials identified through quantitative high-throughput screening of Plasmodium blood and liver stage parasites” (Scientific Reports, 2021)
“And” between values parts separate entries of the source, which are not always exact repeats. Equal values may be shown once. Read-outs that look alike come from different tables or passages of the source.

Tests used:
[1] = tested on: P. falciparum Dd2 (clone B2) asexual blood stage parasites; test: P. falciparum Dd2 asexual blood stage SYBR Green-I 72 h proliferation assay (qHTS); assay type: cell-based, Plasmodium falciparum; conditions: for Pf ABS Log AC50 (M): averaged P. falciparum asexual blood stage potency, log10 of AC50 in M
[2] = tested on: P. berghei-ANKA-GFP-LucCON liver stage parasites in HepG2-A16-CD81EGFP cells; test: P. berghei liver stage Pb-Luc assay, Method 1 (UCSD, 1536-well); assay type: cell-based, Plasmodium berghei; conditions: for Average P. berghei 3 µM response( %) / Average P. berghei 1 µM response (%): P. berghei liver stage, averaged response (percent); for Average P. berghei 1 µM response (%): the header list (r8) defines it as the 1 µM dose; for Max Resp (signal direction of the dose response): Decrease = decreasing P. berghei viability with dose, Increase = increasing signal, Inactive = no dose response; for activity at 1 µM / activity at 3 µM: 48 h, average of 2 wells, 1536-well plate; for activity at 1 µM: nominal 1 uM (10 mM stock), […] for 15 mM, 1.2 uM for 12 mM, 2 uM for 20 mM stock; for activity at 3 µM: nominal 3 uM (10 mM stock), 4.5 uM for 15 mM, 3.6 uM for 12 mM, 6 uM for 20 mM stock
HepG2-A16-CD81EGFP cells = conditions: for Average HepG2 3 µM response( %): averaged response (percent)
[3] = tested on: luciferase-expressing P. berghei liver stage parasites in HepG2 cells; test: Inhibition of liver-stage development assay (ILSDA), Method 2 (WRAIR, 96-well); assay type: cell-based, Plasmodium berghei; conditions: for Max Resp (signal direction of the dose response) / AC50 / Log AC50 (M): Method 2; for Max Resp (signal direction of the dose response): Decrease = decreasing P. berghei viability with dose, Increase = increasing signal, Inactive = no dose response; for AC50: Hill fit, 50% of maximum activity response, read-out: AC50; for Log AC50 (M): log10 of molar AC50 from Hill fit; for Activity direction (Decrease / Inactive): P. berghei liver stage, Method 2, dose response
[4] = tested on: Plasmodium falciparum Dd2 asexual blood stage parasites; test: microbe, parasite or virus in culture; design: species or system Plasmodium falciparum Dd2 in human erythrocytes; single determination (one 11-point concentration-response curve); conditions: Plasmodium falciparum, DD2, Erythrocyte, 72 h; read-out: AC50
[5] = tested on: T1, Plasmodium falciparum Dd2-attB (parental line), asexual blood stages; test: microbe, parasite or virus in culture; design: replicate k of 3 (each line is one of three independent assays; the three lines of one compound and parasite line follow each other); conditions: n = 1; for Individual replicates / Log AC50 (M): 72 h; for AC50: Plasmodium falciparum, DD2, 72 h, read-out: Individual replicates / Log AC50 (converted)
T1 construct: Dd2-attB, the isogenic parental line
How it was run: (§1)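 Three independent runs, compound subset only; parental vs ScDHODH line compared by two-sided Student's t-test.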

[6] = tested on: T2, Plasmodium falciparum Dd2-attB-ScDHODH (transgenic line expressing yeast DHODH), asexual blood stages; test: organism not typed; design: replicate k of 3 (each line is one of three independent assays; the three lines of one compound and parasite line follow each other); conditions: 72 h, n = 1; for AC50: read-out: Individual replicates / Log AC50 (converted)
T2 construct: Dd2-attB-ScDHODH, the transgenic line that expresses yeast DHODH
How it was run: as §1

in vitro = conditions: human, HepG2-A16-CD81EGFP cells, uninfected
[7] = HepG2, the header list (r10) describes it as the 1 µM dose
[8] = Plasmodium berghei, Method 1, Hill fit, 50% of maximum activity response, read-out: AC50
[9] = Plasmodium berghei, Method 1, log10 of molar AC50 from Hill fit, read-out: Log AC50 (converted)
[10] = Plasmodium berghei, repeat 1, read-out: Pb-Luc signal, 1 uM, repeat 1
[11] = Plasmodium berghei, repeat 2, read-out: Pb-Luc signal, 1 uM, repeat 2
[12] = Plasmodium berghei, repeat 3, read-out: Pb-Luc signal, 1 uM, repeat 3
[13] = Plasmodium berghei, repeat 1, read-out: Pb-Luc signal, 3 uM, repeat 1
[14] = Plasmodium berghei, repeat 2, read-out: Pb-Luc signal, 3 uM, repeat 2
[15] = Plasmodium berghei, repeat 3, read-out: Pb-Luc signal, 3 uM, repeat 3

SMILES | Pf ABS Log AC50 (M) [1] [M] | Average P. berghei 3 µM response( %) [2] [%] | Average P. berghei 1 µM response (%) [2] [%] | Average HepG2 3 µM response( %) (HepG2-A16-CD81EGFP cells; HepG2, 3 µM dose) [%] | Average HepG2 3 µM response( %) (HepG2-A16-CD81EGFP cells; [7]) [%] | Max Resp (signal direction of the dose response) ([2]; Method 1) | AC50 [2, 8] [nM] | AC50 [2, 9] [nM] | Max Resp (signal direction of the dose response) [3] | AC50 [3] [nM] | Log AC50 (M) [3] [M] | AC50 [4] [nM] | Individual replicates / Log AC50 (M) [5] | AC50 [5] [nM] | Individual replicates / Log AC50 (M) [6] | further results
COc1cc(Br)c(C(C)NC(=O)c2cccc(Br)c2)cc1OC (stereo not shown) [MLS000325399] | -5.887 | 70 | 107 | 93 | 98 | – | – | – | – | – | – | – | – | – | – | –
COc1cccc(CNCC(O)(c2ccc(Cl)cc2)c2ccc(Cl)cc2)c1 [MLS000325699] | -5.812 | 98 | 112 | 101 | 105 | – | – | – | – | – | – | – | – | – | – | –
O=C(Nc1c(C(=O)c2ccccc2)oc2ccccc12)c1cc(-c2ccccc2O)n[nH]1 [MLS000331861] | -5.837 | 116 | 84 | 101 | 103 | – | – | – | – | – | – | – | – | – | – | –
Cc1ccc(NC2=C(c3ccc(C(F)(F)F)cc3)C(=O)c3ccccc32)cc1C [NCGC00107300-01] | – | – | – | – | – | Decrease | 447 | 447 | Decrease | 398 | -6.400 | 2110 | -5.7486 Log AC50 (M) and -5.5986 Log AC50 (M) | 1590 | -5.4986 Log AC50 (M) and -5.2486 Log AC50 (M) | AC50 ([2]; Method 1, Hill fit, 50% of maximum activity response, read-out: AC50): 794 nM; Log AC50 (M) ([2]; Method 1, log10 of molar AC50 from Hill fit): -6.100 M; AC50 [6]: 3990 nM
Cc1ccc(C)c(NC2=C(c3ccc(C(F)(F)F)cc3)C(=O)c3ccccc32)c1 [NCGC00107302-01] | – | – | – | – | – | – | 1580 | 1580 | Decrease | 501 | -6.300 | 4730 | -5.6986 Log AC50 (M) and -5.7486 Log AC50 (M) | 1130 | -4.9986 Log AC50 (M) and -5.0486 Log AC50 (M) | AC50 [6]: 7970 nM
COc1ccc(NC2=C(c3ccc(C(F)(F)F)cc3)C(=O)c3ccccc32)cc1 [NCGC00107310-01] | – | – | – | – | – | Decrease | 1780 | 1780 | Decrease | 141 | -6.850 | 2110 | -6.3486 Log AC50 (M) and -6.1486 Log AC50 (M) and -6.1986 Log AC50 (M) | – | -5.7986 Log AC50 (M) and -5.8986 Log AC50 (M) (2×) | –
Oc1ccc(CN2CC(CNc3ccccc3)C3(C2)CN(c2ccccc2)C3)cc1 (stereo not shown) [NCGC00416032-01] | – | – | – | – | – | – | 1410 | 1410 | – | – | – | 611 | -5.9373 Log AC50 (M) and -6.1873 Log AC50 (M) | 818 | -5.6373 Log AC50 (M) and -5.9873 Log AC50 (M) | activity at 1 µM [2, 10]: 52.9%; activity at 1 µM [2, 11]: 59%; activity at 1 µM [2, 12]: 77.5%; activity at 3 µM [2, 13]: 5.3%; activity at 3 µM [2, 14]: 6.04%; activity at 3 µM [2, 15]: 8.95%; Activity direction (Decrease / Inactive) [3]: Inactive; HepG2 viability signal, 1 uM, repeat 2 (HepG2-A16-CD81EGFP cells; nominal 1 uM (10 mM stock), […] for 15 mM, 1.2 uM for 12 mM, 2 uM for 20 mM stock, average of 2 wells, repeat 2): 101.59%; HepG2 viability signal, 3 uM, repeat 2 (HepG2-A16-CD81EGFP cells; nominal 3 uM (10 mM stock), 4.5 uM for 15 mM, 3.6 uM for 12 mM, 6 uM for 20 mM stock, average of 2 wells, repeat 2): 99.28%; viability at 48 h, 1 µM (in vitro): 106%; viability at 48 h, 3 µM (in vitro): 106%
CCCN1C(CC(C)C)=N[S+](=O)([O-])c2cc(NC(=O)c3ccco3)ccc21 [NCGC00473219-01] | – | – | – | – | – | Decrease | 631 | 631 | – | – | – | 7500 | -6.1986 Log AC50 (M) and -5.7986 Log AC50 (M) and -6.3486 Log AC50 (M) | – | -5.5986 Log AC50 (M) and -5.4986 Log AC50 (M) and -5.2486 Log AC50 (M) | activity at 1 µM [2, 10]: 32.3%; activity at 1 µM [2, 11]: 25.4%; activity at 1 µM [2, 12]: 19.9%; activity at 3 µM [2, 13]: 11.9%; activity at 3 µM [2, 14]: 8.91%; activity at 3 µM [2, 15]: 10.7%; Activity direction (Decrease / Inactive) [3]: Inactive; HepG2 viability signal, 1 uM, repeat 2 (HepG2-A16-CD81EGFP cells): 101.29%; HepG2 viability signal, 3 uM, repeat 2 (HepG2-A16-CD81EGFP cells): 102.75%; viability at 48 h, 1 µM (in vitro): 103%; viability at 48 h, 3 µM (in vitro): 105%
C[C@H]1[C@@H](O)O[C@@H]2O[C@@]3(C)CC[C@H]4[C@H](C)CC[C@@H]1[C@@]24OO3 [dihydroartemisinin, reference compound] | – | – | – | – | – | – | – | – | – | – | – | – | – | – | – | AC50 ([1]; Plasmodium falciparum, DD2, 72 h, SYBR Green 72 h, read-out: AC50, Dd2 ABS parasites): 2 nM
